Data from patent US20080009418A1, “Selective Inhibitors” (Alchemia LTD., priority 2004, published 2008).

What was measured:
[1] = target: T1, Human δ-opioid (DOP) (Homo sapiens, UniProt P41143); test: Radioligand binding, human δ-opioid (DOP) membranes, FlashPlate, [3H]-Bremazocine; conditions: compound at 10 μM; for A1: inhibition of radioligand binding: FlashPlate
T1 construct: purchased Perkin Elmer Biosignal
Outline: (§1)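 Cloned human receptor membranes were coated onto FlashPlate wells and incubated with radioligand and compound (added from a 0.5 mM DMSO daughter plate) for 1 hour at room temperature in the dark. Scintillation counting gave percent inhibition, with DMSO defining total and reference ligand defining non-specific binding.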

[2] = target: T2, Human κ-Opioid (KOP) (Homo sapiens, UniProt P41145); test: Radioligand binding, human κ-opioid (KOP) membranes, filtration, [3H]-Diprenorphine; conditions: compound at 10 μM; for A2: inhibition of radioligand binding: filtration
T2 construct: purchased Perkin Elmer Biosignal
Outline: (§2)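 Filtration binding on cloned human receptor membranes (1 Unit/well), [125I]-Substance P for NK1 and [3H]-Diprenorphine for KOP, 1 h at room temperature. Filters PEI-presoaked, washed with cold 50 mM Tris-HCl pH 7.4, counted by scintillation; percent inhibition calculated, reference ligand defining non-specific binding.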

[3] = target: T3, Human Melanocortin (MC3) (Homo sapiens, UniProt P41968); test: Radioligand binding, human melanocortin MC3 membranes, FlashPlate, [125I]-NDP-αMSH; conditions: compound at 10 μM; for A3: inhibition of radioligand binding: FlashPlate
T3 construct: purchased Perkin Elmer Biosignal
Outline: as §1

[4] = target: T4, Human Melanocortin (MC4) (Homo sapiens, UniProt P32245); test: Radioligand binding, human melanocortin MC4 membranes, FlashPlate, [125I]-NDP-αMSH; conditions: compound at 10 μM; for A4: inhibition of radioligand binding: FlashPlate
T4 construct: purchased Perkin Elmer Biosignal
Outline: as §1

[5] = target: T5, Human melanocortin (MC5) (Homo sapiens, UniProt P33032); test: Radioligand binding, human melanocortin MC5 membranes, FlashPlate, [125I]-NDP-αMSH; conditions: compound at 10 μM; for A5: inhibition of radioligand binding: FlashPlate
T5 construct: purchased Perkin Elmer Biosignal
Outline: as §1

[6] = target: T6, Human melanin-concentrating hormone (MCH1) (Homo sapiens, UniProt Q99705); test: Radioligand binding, human melanin-concentrating hormone MCH1 membranes, FlashPlate, [125I]-S36057; conditions: compound at 10 μM; for A6: inhibition of radioligand binding: [125I]-S36057, FlashPlate
T6 construct: purchased Perkin Elmer Biosignal
Outline: as §1

[7] = target: T7, Human μ-opioid (MOP) (Homo sapiens, UniProt P35372); test: Radioligand binding, human μ-opioid (MOP) membranes, FlashPlate, [3H]-Naloxone; conditions: compound at 10 μM; for A7: inhibition of radioligand binding: FlashPlate
T7 construct: purchased Perkin Elmer Biosignal
Outline: as §1

[8] = target: T8, Human neurokinin (NK1) (Homo sapiens, UniProt P25103); test: Radioligand binding, human neurokinin NK1 membranes, filtration, [125I]-Substance P; conditions: compound at 10 μM; for A8: inhibition of radioligand binding: filtration
T8 construct: purchased Perkin Elmer Biosignal
Outline: as §2

[9] = target: T9, Human neuropeptide Y (NPY-Y1) (Homo sapiens, UniProt P25929); test: Radioligand binding, human neuropeptide Y NPY-Y1 membranes, FlashPlate, [125I]-PYY; conditions: compound at 10 μM; for A9: inhibition of radioligand binding: FlashPlate
T9 construct: purchased Perkin Elmer Biosignal
T9 sequence (P25929 1-384): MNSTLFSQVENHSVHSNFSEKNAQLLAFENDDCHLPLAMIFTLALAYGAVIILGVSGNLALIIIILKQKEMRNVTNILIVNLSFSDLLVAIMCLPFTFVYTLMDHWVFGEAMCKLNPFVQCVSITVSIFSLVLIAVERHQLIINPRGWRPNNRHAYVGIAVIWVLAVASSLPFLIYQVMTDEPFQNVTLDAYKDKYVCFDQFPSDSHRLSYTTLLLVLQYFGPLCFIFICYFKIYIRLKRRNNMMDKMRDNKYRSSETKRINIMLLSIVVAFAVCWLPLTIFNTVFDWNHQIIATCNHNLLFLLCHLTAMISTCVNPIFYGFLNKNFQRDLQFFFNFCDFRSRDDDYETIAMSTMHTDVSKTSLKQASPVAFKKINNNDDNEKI
Outline: as §1

[10] = target: T10, Human opioid (ORL1) (Homo sapiens, UniProt P41146); test: Radioligand binding, human opioid ORL1 membranes, FlashPlate, [125I]-Nociceptin; conditions: compound at 10 μM; for A10: inhibition of radioligand binding: FlashPlate
T10 construct: purchased Perkin Elmer Biosignal
Outline: as §1

[11] = target: T11, Mouse urotensin (mUR2) (Mus musculus, UniProt Q8VIH9); test: Radioligand binding, mouse urotensin mUR2 membranes, FlashPlate, [125I]-Urotensin II; conditions: compound at 10 μM; for A11: inhibition of radioligand binding: FlashPlate
T11 construct: purchased Perkin Elmer Biosignal
T11 sequence (Q8VIH9 1-385): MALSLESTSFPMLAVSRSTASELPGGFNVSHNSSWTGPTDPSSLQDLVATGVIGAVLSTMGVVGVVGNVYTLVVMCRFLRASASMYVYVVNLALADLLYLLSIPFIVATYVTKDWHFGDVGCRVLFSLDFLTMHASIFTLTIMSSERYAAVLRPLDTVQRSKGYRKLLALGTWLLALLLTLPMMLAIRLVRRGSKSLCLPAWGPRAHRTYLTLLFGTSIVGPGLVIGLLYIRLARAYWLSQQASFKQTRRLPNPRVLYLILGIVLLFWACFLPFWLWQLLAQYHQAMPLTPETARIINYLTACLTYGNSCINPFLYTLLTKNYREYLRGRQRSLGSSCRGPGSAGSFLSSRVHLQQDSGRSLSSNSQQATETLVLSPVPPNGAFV
Outline: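 Cloned mouse urotensin (mUR2) receptor membranes from Perkin Elmer Biosignal were immobilized in FlashPlate microplates using a proprietary coating. Each well got 19.5 μl buffer, then 0.5 μl of DMSO, reference ligand, or compound. Adding 5 μl of [125I]-Urotensin II, diluted to 5× final concentration in binding buffer, started binding. Plates were sealed with TopSeal-A and incubated 1 hour at room temperature in the dark. Wells were counted for 30 seconds each on a TopCount after a 60-second delay, and percentage inhibition was calculated.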

T7 sequence (P35372 whole entry): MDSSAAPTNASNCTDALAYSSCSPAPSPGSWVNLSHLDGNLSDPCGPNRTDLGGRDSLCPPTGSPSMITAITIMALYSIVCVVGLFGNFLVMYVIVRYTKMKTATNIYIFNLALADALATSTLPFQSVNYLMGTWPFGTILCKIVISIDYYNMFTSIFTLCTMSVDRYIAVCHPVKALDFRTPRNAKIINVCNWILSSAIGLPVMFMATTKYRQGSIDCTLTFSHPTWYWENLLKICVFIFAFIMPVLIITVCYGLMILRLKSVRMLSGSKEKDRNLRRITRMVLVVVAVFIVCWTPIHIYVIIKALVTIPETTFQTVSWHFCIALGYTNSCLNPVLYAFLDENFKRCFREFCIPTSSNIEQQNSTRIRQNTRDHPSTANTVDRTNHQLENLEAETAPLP
T10 sequence (P41146 whole entry): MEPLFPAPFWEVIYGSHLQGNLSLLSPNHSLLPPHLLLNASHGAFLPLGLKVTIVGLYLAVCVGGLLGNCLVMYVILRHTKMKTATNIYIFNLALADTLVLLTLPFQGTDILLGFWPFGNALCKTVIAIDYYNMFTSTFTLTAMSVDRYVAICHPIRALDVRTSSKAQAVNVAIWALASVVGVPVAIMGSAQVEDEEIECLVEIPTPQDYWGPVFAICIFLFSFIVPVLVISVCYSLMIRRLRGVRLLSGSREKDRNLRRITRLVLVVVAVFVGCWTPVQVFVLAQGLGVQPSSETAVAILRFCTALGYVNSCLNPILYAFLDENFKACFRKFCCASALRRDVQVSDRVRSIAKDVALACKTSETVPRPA
T1 sequence (P41143 whole entry): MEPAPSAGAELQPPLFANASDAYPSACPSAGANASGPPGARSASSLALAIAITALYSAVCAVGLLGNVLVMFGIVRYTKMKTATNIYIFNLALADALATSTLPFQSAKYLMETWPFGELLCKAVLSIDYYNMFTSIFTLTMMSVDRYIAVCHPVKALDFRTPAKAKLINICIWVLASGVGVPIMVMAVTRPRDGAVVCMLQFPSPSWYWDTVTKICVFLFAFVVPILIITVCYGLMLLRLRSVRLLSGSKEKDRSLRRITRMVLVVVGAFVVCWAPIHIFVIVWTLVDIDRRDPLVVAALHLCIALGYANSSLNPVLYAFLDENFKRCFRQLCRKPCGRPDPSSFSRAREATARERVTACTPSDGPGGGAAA
T4 sequence (P32245 whole entry): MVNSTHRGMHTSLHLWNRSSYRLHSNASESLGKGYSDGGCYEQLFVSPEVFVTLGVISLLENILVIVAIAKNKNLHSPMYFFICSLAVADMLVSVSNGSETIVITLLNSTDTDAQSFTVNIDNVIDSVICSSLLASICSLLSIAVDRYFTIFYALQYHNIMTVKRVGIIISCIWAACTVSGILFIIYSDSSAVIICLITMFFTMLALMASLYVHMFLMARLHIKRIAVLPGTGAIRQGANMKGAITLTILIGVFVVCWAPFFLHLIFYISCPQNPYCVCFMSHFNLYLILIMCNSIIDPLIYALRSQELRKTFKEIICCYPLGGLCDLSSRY
T6 sequence (Q99705 whole entry): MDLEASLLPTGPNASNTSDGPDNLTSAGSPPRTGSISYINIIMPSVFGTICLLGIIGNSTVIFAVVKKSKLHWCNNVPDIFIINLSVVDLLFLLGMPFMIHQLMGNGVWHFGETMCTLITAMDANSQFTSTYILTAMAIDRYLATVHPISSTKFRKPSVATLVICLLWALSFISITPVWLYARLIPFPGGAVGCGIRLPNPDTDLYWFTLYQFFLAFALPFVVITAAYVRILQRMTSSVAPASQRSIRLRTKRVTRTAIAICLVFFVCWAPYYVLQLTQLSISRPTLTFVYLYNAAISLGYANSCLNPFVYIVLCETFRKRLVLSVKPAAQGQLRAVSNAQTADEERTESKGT
T8 sequence (P25103 whole entry): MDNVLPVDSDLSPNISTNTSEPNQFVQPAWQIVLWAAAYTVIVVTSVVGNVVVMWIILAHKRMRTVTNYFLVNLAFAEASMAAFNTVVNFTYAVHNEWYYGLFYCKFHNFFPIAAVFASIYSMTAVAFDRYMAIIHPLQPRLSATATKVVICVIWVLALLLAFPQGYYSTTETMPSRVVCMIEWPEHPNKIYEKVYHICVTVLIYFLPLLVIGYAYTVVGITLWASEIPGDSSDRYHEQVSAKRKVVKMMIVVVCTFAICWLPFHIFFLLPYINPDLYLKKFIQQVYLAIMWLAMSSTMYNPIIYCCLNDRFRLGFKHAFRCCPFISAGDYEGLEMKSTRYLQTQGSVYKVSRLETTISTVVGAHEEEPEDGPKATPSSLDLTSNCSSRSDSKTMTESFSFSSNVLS
T2 sequence (P41145 whole entry): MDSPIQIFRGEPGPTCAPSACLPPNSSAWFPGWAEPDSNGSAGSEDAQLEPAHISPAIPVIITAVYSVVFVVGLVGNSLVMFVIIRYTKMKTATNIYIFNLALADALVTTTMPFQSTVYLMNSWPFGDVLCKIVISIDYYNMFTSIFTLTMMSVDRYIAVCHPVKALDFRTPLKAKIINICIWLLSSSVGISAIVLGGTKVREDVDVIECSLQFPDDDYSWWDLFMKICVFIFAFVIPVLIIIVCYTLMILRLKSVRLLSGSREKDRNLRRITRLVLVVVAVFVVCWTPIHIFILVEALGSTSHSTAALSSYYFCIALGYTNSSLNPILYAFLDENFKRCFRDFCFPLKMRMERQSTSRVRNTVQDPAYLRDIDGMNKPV
T5 sequence (P33032 whole entry): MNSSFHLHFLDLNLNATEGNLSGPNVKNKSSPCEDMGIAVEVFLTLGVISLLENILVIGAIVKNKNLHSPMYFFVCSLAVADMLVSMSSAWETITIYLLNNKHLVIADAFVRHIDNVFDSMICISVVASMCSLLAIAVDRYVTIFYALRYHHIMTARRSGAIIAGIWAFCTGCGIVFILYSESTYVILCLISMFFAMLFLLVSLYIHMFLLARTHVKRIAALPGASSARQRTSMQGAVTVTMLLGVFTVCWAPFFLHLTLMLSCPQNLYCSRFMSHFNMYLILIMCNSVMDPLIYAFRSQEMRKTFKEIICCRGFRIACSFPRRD
T3 sequence (P41968 whole entry): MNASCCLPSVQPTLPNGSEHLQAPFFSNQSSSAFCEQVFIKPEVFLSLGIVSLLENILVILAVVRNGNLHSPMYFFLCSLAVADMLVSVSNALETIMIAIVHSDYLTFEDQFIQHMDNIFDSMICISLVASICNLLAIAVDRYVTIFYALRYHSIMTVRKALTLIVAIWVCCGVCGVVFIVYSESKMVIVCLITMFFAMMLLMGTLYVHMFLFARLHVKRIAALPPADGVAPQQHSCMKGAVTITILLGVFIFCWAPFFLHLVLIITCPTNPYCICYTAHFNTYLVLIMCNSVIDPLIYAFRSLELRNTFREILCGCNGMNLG

SMILES	A1: inhibition of radioligand binding ([1]; [3H]-Bremazocine)	A2: inhibition of radioligand binding ([2]; [3H]-Diprenorphine)	A3: inhibition of radioligand binding ([3]; [125I]-NDP-αMSH)	A4: inhibition of radioligand binding ([4]; [125I]-NDP-αMSH)	A5: inhibition of radioligand binding ([5]; [125I]-NDP-αMSH)	A6: inhibition of radioligand binding [6]	A7: inhibition of radioligand binding ([7]; [3H]-Naloxone)	A8: inhibition of radioligand binding ([8]; [125I]-Substance P)	A9: inhibition of radioligand binding ([9]; [125I]-PYY)	A10: inhibition of radioligand binding ([10]; [125I]-Nociceptin)	A11: inhibition of radioligand binding ([11]; [125I]-Urotensin II)	also measured
COCC1OC(OCc2ccccc2)C(NC(=O)CCN)C(OCc2ccc3ccccc3c2)C1O (stereo not drawn) [compound 190]	− (“−” indicates less than 50% inhibition at 10 μM)	− (“−” indicates less than 50% inhibition at 10 μM)	− (“−” indicates less than 50% inhibition at 10 μM)	− (“−” indicates less than 50% inhibition at 10 μM)	+ (“+” indicates greater than 50% inhibition at 10 μM)	− (“−” indicates less than 50% inhibition at 10 μM)	− (“−” indicates less than 50% inhibition at 10 μM)	+ (“+” indicates greater than 50% inhibition at 10 μM)	− (“−” indicates less than 50% inhibition at 10 μM)	− (“−” indicates less than 50% inhibition at 10 μM)	− (“−” indicates less than 50% inhibition at 10 μM)	–
COCC1OC(OCc2ccc(Cl)cc2)C(NC(=O)CCNC(=N)N)C(OCc2ccc(-c3ccccc3)cc2)C1O (stereo not drawn) [compound 206]	− (“−” indicates less than 50% inhibition at 10 μM)	− (“−” indicates less than 50% inhibition at 10 μM)	− (“−” indicates less than 50% inhibition at 10 μM)	+ (“+” indicates greater than 50% inhibition at 10 μM)	+ (“+” indicates greater than 50% inhibition at 10 μM)	+ (“+” indicates greater than 50% inhibition at 10 μM)	− (“−” indicates less than 50% inhibition at 10 μM)	+ (“+” indicates greater than 50% inhibition at 10 μM)	− (“−” indicates less than 50% inhibition at 10 μM)	− (“−” indicates less than 50% inhibition at 10 μM)	− (“−” indicates less than 50% inhibition at 10 μM)	–
CO[C@H]1[C@H](O)[C@@H](COCc2ccccc2)OC(OCc2ccc(-c3ccccc3)cc2)[C@@H]1NC(=O)CCCN (stereo partly drawn) [compound 60]	–	–	–	–	–	–	–	–	–	–	–	A1 radioligand binding inhibition ([1]; human δ-opioid (DOP) membranes): − (“−” indicates less than 50% inhibition at 10 μM); A2 radioligand binding inhibition ([2]; human κ-opioid (KOP) membranes): − (“−” indicates less than 50% inhibition at 10 μM); A3 radioligand binding inhibition ([3]; human melanocortin MC3 membranes): − (“−” indicates less than 50% inhibition at 10 μM); A4 radioligand binding inhibition ([4]; human melanocortin MC4 membranes): − (“−” indicates less than 50% inhibition at 10 μM); A5 radioligand binding inhibition ([5]; human melanocortin MC5 membranes): + (“+” indicates greater than 50% inhibition at 10 μM); A6 radioligand binding inhibition ([6]; human MCH1 membranes): − (“−” indicates less than 50% inhibition at 10 μM); A7 radioligand binding inhibition ([7]; human μ-opioid (MOP) membranes): − (“−” indicates less than 50% inhibition at 10 μM); A8 radioligand binding inhibition ([8]; human neurokinin NK1 membranes): − (“−” indicates less than 50% inhibition at 10 μM); A9 radioligand binding inhibition ([9]; human NPY-Y1 membranes): − (“−” indicates less than 50% inhibition at 10 μM); A10 radioligand binding inhibition ([10]; human ORL1 membranes): − (“−” indicates less than 50% inhibition at 10 μM); A11 radioligand binding inhibition ([11]; mouse urotensin mUR2 membranes): − (“−” indicates less than 50% inhibition at 10 μM)
COCC1OC(OCc2ccc3ccccc3c2)C(NC(=O)CCCN)C(OCc2ccc(Cl)cc2)C1O (stereo not drawn) [compound 239]	− (“−” indicates less than 50% inhibition at 10 μM)	− (“−” indicates less than 50% inhibition at 10 μM)	− (“−” indicates less than 50% inhibition at 10 μM)	− (“−” indicates less than 50% inhibition at 10 μM)	+ (“+” indicates greater than 50% inhibition at 10 μM)	− (“−” indicates less than 50% inhibition at 10 μM)	− (“−” indicates less than 50% inhibition at 10 μM)	+ (“+” indicates greater than 50% inhibition at 10 μM)	− (“−” indicates less than 50% inhibition at 10 μM)	− (“−” indicates less than 50% inhibition at 10 μM)	− (“−” indicates less than 50% inhibition at 10 μM)	–
CO[C@H]1[C@H](O)[C@@H](COCc2ccc(Cl)cc2)OC(OCc2ccccc2)[C@@H]1NC(=O)CCCNC(=N)N (stereo partly drawn) [compound 93]	–	–	–	–	–	–	–	–	–	–	–	A1 radioligand binding, percentage inhibition ([1]; [3H]-Bremazocine): − (“−” indicates less than 50% inhibition at 10 μM); A2 radioligand binding, percentage inhibition ([2]; [3H]-Diprenorphine): − (“−” indicates less than 50% inhibition at 10 μM); A3 radioligand binding, percentage inhibition ([3]; [125I]-NDP-αMSH): − (“−” indicates less than 50% inhibition at 10 μM); A4 radioligand binding, percentage inhibition ([4]; [125I]-NDP-αMSH): − (“−” indicates less than 50% inhibition at 10 μM); A5 radioligand binding, percentage inhibition ([5]; [125I]-NDP-αMSH): + (“+” indicates greater than 50% inhibition at 10 μM); A6 radioligand binding, percentage inhibition ([6]; [125I]-S36057): − (“−” indicates less than 50% inhibition at 10 μM); A7 radioligand binding, percentage inhibition ([7]; [3H]-Naloxone): + (“+” indicates greater than 50% inhibition at 10 μM); A8 radioligand binding, percentage inhibition ([8]; [125I]-Substance P): + (“+” indicates greater than 50% inhibition at 10 μM); A9 radioligand binding, percentage inhibition ([9]; [125I]-PYY): − (“−” indicates less than 50% inhibition at 10 μM); A10 radioligand binding, percentage inhibition ([10]; [125I]-Nociceptin): − (“−” indicates less than 50% inhibition at 10 μM); A11 radioligand binding, percentage inhibition ([11]; [125I]-Urotensin II): − (“−” indicates less than 50% inhibition at 10 μM)
NCCCC(=O)NC1C(OCc2ccccc2)OC(COCc2ccccc2)C(O)C1OCc1ccc2ccccc2c1 (stereo not drawn) [compound 376]	–	–	–	–	–	–	–	–	–	–	–	A1: inhibition of radioligand binding, human δ-opioid (DOP) ([1]; [3H]-Bremazocine): − (“−” indicates less than 50% inhibition at 10 μM); A2: inhibition of radioligand binding, human κ-opioid (KOP) ([2]; [3H]-Diprenorphine): − (“−” indicates less than 50% inhibition at 10 μM); A3: inhibition of radioligand binding, human melanocortin (MC3) ([3]; [125I]-NDP-αMSH): − (“−” indicates less than 50% inhibition at 10 μM); A4: inhibition of radioligand binding, human melanocortin (MC4) ([4]; [125I]-NDP-αMSH): + (“+” indicates greater than 50% inhibition at 10 μM); A5: inhibition of radioligand binding, human melanocortin (MC5) ([5]; [125I]-NDP-αMSH): + (“+” indicates greater than 50% inhibition at 10 μM); A6: inhibition of radioligand binding, human melanin-concentrating hormone (MCH1) ([6]; [125I]-S36057): − (“−” indicates less than 50% inhibition at 10 μM); A7: inhibition of radioligand binding, human μ-opioid (MOP) ([7]; [3H]-Naloxone): − (“−” indicates less than 50% inhibition at 10 μM); A8: inhibition of radioligand binding, human neurokinin (NK1) ([8]; [125I]-Substance P): + (“+” indicates greater than 50% inhibition at 10 μM); A9: inhibition of radioligand binding, human neuropeptide Y (NPY-Y1) ([9]; [125I]-PYY): − (“−” indicates less than 50% inhibition at 10 μM); A10: inhibition of radioligand binding, human opioid (ORL1) ([10]; [125I]-Nociceptin): − (“−” indicates less than 50% inhibition at 10 μM); A11: inhibition of radioligand binding, mouse urotensin (mUR2) ([11]; [125I]-Urotensin II): − (“−” indicates less than 50% inhibition at 10 μM)
